In the supplement of paper PMC10307832:

What was measured:
Assay in all cases: relative viability (nuclei count vs DMSO), 5 days (fraction); higher = more cells survive
NCI-H661 = tested on: NCI-H661
Outline: (§1)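 The day after seeding in 1536-well plates, lung cancer cell lines were treated by pin tool with a single drug, or with a fixed anchor-drug dose together with five library-drug doses (not always all listed) in √10 steps. After 5 days, a combined fix-and-stain solution (final 0.05% Triton X-100, 1% formaldehyde, 1 ug/ml Hoechst) was added. Nuclei counted on 4× images gave relative viability as treated counts over vehicle counts, reported as the median of duplicate plates.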

NCI-H1437 = tested on: NCI-H1437
Outline: as §1

NCI-H1793 = tested on: NCI-H1793
Outline: as §1

HARA = tested on: HARA
Outline: as §1

NCI-H2085 = tested on: NCI-H2085
Outline: as §1

RERF-LC-KJ = tested on: RERF-LC-KJ
Outline: as §1

LXF-289 = tested on: LXF-289
Outline: as §1

LCLC-103H = tested on: LCLC-103H
Outline: as §1

LOU-NH91 = tested on: LOU-NH91
Outline: as §1

BEN = tested on: BEN
Outline: as §1

NCI-H2342 = tested on: NCI-H2342
Outline: as §1

A-427 = tested on: A-427
Outline: as §1

C=C1C(=O)O[C@@H](CCCCCCCC)[C@@H]1C(=O)O [C-75] + CC(=O)c1c(C)c2cnc(Nc3ccc(N4CCNCC4)cn3)nc2n(C2CCCC2)c1=O [Palbociclib] (partner 0.5 µM)
relative viability (NCI-H661; first compound 0.253 µM): 0.41 | relative viability (NCI-H661; first compound 0.8 µM): 0.378 | relative viability (NCI-H661; first compound 2.53 µM): 0.374 | relative viability (NCI-H661; first compound 8 µM): 0.394 | relative viability (NCI-H1437; first compound 0.08 µM): 0.301 | relative viability (NCI-H1437; first compound 0.253 µM): 0.381 | relative viability (NCI-H1437; first compound 0.8 µM): 0.299 | relative viability (NCI-H1437; first compound 8 µM): 0.312 | relative viability (NCI-H1793; first compound 0.08 µM): 0.278 | relative viability (NCI-H1793; first compound 0.253 µM): 0.311 | relative viability (NCI-H1793; first compound 2.53 µM): 0.267 | relative viability (NCI-H1793; first compound 8 µM): 0.306 | relative viability (HARA; first compound 0.08 µM): 0.254 | relative viability (HARA; first compound 0.253 µM): 0.222 | relative viability (HARA; first compound 0.8 µM): 0.273 | relative viability (HARA; first compound 2.53 µM): 0.222 | relative viability (HARA; first compound 8 µM): 0.28 | relative viability (NCI-H2085; first compound 0.08 µM): 0.491 | relative viability (NCI-H2085; first compound 0.253 µM): 0.403 | relative viability (NCI-H2085; first compound 0.8 µM): 0.443 | relative viability (NCI-H2085; first compound 2.53 µM): 0.436 | relative viability (NCI-H2085; first compound 8 µM): 0.468 | relative viability (RERF-LC-KJ; first compound 0.08 µM): 1.06 | relative viability (RERF-LC-KJ; first compound 0.253 µM): 1.12 | relative viability (RERF-LC-KJ; first compound 0.8 µM): 1.07 | relative viability (RERF-LC-KJ; first compound 2.53 µM): 1.03 | relative viability (RERF-LC-KJ; first compound 8 µM): 1.15 | relative viability (LXF-289; first compound 0.08 µM): 0.567 | relative viability (LXF-289; first compound 0.253 µM): 0.553 | relative viability (LXF-289; first compound 0.8 µM): 0.597 | relative viability (LXF-289; first compound 2.53 µM): 0.604 | relative viability (LXF-289; first compound 8 µM): 0.621 | relative viability (LCLC-103H; first compound 0.08 µM): 0.447 | relative viability (LCLC-103H; first compound 0.253 µM): 0.428 | relative viability (LCLC-103H; first compound 0.8 µM): 0.499 | relative viability (LCLC-103H; first compound 2.53 µM): 0.353 | relative viability (LCLC-103H; first compound 8 µM): 0.451 | relative viability (LOU-NH91; first compound 0.08 µM): 0.534 | relative viability (LOU-NH91; first compound 0.253 µM): 0.536 | relative viability (LOU-NH91; first compound 0.8 µM): 0.504 | relative viability (LOU-NH91; first compound 8 µM): 0.464 | relative viability (BEN; first compound 0.08 µM): 0.509 | relative viability (BEN; first compound 0.253 µM): 0.483 | relative viability (BEN; first compound 0.8 µM): 0.46 | relative viability (BEN; first compound 2.53 µM): 0.375 | relative viability (BEN; first compound 8 µM): 0.452 | relative viability (NCI-H2342; first compound 0.08 µM): 0.546 | relative viability (NCI-H2342; first compound 0.253 µM): 0.488 | relative viability (NCI-H2342; first compound 0.8 µM): 0.551 | relative viability (NCI-H2342; first compound 2.53 µM): 0.541 | relative viability (NCI-H2342; first compound 8 µM): 0.571 | relative viability (A-427; first compound 0.08 µM): 0.531 | relative viability (A-427; first compound 0.253 µM): 0.468 | relative viability (A-427; first compound 0.8 µM): 0.49 | relative viability (A-427; first compound 2.53 µM): 0.464 | relative viability (A-427; first compound 8 µM): 0.523
